Each block holds one compound with its values, some of them ahead of it.
Legend:
Rattus norvegicus [1] = test: Total electrolytic excretion of potassium in urine of rats after peroral administration of 83.8 uM/Kg of drug; type: ADME, organism-based; settings: in vivo, po
Rattus norvegicus [2] = test: Tested for the diuretic activity by measuring the urinary volume after peroral administering 27.9 uM/Kg of drug in rats; type: ADME, organism-based, Urine; settings: in vivo, po
Rattus norvegicus [3] = test: Ratio of Total electrolytic excretion of sodium and potassium in urine of rats after peroral administration of 279 uM/Kg of drug; type: ADME, organism-based; settings: in vivo, po
Rattus norvegicus [4] = test: Total electrolytic excretion of chlorine in urine of rats after peroral administration of 279 uM/Kg of drug; type: ADME, organism-based; settings: in vivo, po
Rattus norvegicus [5] = test: Total electrolytic excretion of chlorine in urine of rats after peroral administration of 27.9 uM/Kg of drug; type: ADME, organism-based; settings: in vivo, po
Rattus norvegicus [6] = test: Total electrolytic excretion of sodium in urine of rats after peroral administration of 27.9 uM/Kg of drug; type: ADME, organism-based; settings: in vivo, po
Rattus norvegicus [7] = test: Ratio of Total electrolytic excretion of sodium and potassium in urine of rats after peroral administration of 83.8 uM/Kg of drug; type: ADME, organism-based; settings: in vivo, po
Rattus norvegicus [8] = test: Tested for the diuretic activity by measuring the urinary volume after peroral administering 83.8 uM/Kg of drug in rats; type: ADME, organism-based, Urine; settings: in vivo, po
Rattus norvegicus [9] = test: Total electrolytic excretion of sodium in urine of rats after peroral administration of 83.8 uM/Kg of drug; type: ADME, organism-based; settings: in vivo, po
Rattus norvegicus [10] = test: Total electrolytic excretion of potassium in urine of rats after peroral administration of 27.9 uM/Kg of drug; type: ADME, organism-based; settings: in vivo, po
Rattus norvegicus [11] = test: Total electrolytic excretion of potassium in urine of rats after peroral administration of 279 uM/Kg of drug; type: ADME, organism-based; settings: in vivo, po
Rattus norvegicus [12] = test: Tested for the diuretic activity by measuring the urinary volume after peroral administering 279 uM/Kg of drug in rats; type: ADME, organism-based, Urine; settings: in vivo, po
Rattus norvegicus [13] = test: Total electrolytic excretion of chlorine in urine of rats after peroral administration of 83.8 uM/Kg of drug; type: ADME, organism-based; settings: in vivo, po
Rattus norvegicus [14] = test: Total electrolytic excretion of sodium in urine of rats after peroral administration of 279 uM/Kg of drug; type: ADME, organism-based; settings: in vivo, po
Rattus norvegicus [15] = test: Ratio of Total electrolytic excretion of sodium and potassium in urine of rats after peroral administration of 27.9 uM/Kg of drug; type: ADME, organism-based; settings: in vivo, po
Rattus norvegicus [16] = test: Total electrolytic excretion of potassium in urine of rats after peroral administration of 7.94 uM/Kg of drug; type: ADME, organism-based; settings: in vivo, po
Rattus norvegicus [17] = test: Ratio of Total electrolytic excretion of sodium and potassium in urine of rats after peroral administration of 265 uM/Kg of drug; type: ADME, organism-based; settings: in vivo, po
Rattus norvegicus [18] = test: Total electrolytic excretion of sodium in urine of rats after peroral administration of 265 uM/Kg of drug; type: ADME, organism-based; settings: in vivo, po
Rattus norvegicus [19] = test: Total electrolytic excretion of sodium in urine of rats after peroral administration of 26.5 uM/Kg of drug; type: ADME, organism-based; settings: in vivo, po
Rattus norvegicus [20] = test: Total electrolytic excretion of potassium in urine of rats after peroral administration of 265 uM/Kg of drug; type: ADME, organism-based; settings: in vivo, po
Rattus norvegicus [21] = test: Total electrolytic excretion of chlorine in urine of rats after peroral administration of 79.4 uM/Kg of drug; type: ADME, organism-based; settings: in vivo, po
Rattus norvegicus [22] = test: Total electrolytic excretion of chlorine in urine of rats after peroral administration of 26.5 uM/Kg of drug; type: ADME, organism-based; settings: in vivo, po
Rattus norvegicus [23] = test: Total electrolytic excretion of sodium in urine of rats after peroral administration of 79.4 uM/Kg of drug; type: ADME, organism-based; settings: in vivo, po
Rattus norvegicus [24] = test: Ratio of Total electrolytic excretion of sodium and potassium in urine of rats after peroral administration of 26.5 uM/Kg of drug; type: ADME, organism-based; settings: in vivo, po
Rattus norvegicus [25] = test: Tested for the diuretic activity by measuring the urinary volume after peroral administering 265 uM/Kg of drug in rats; type: ADME, organism-based, Urine; settings: in vivo, po
Rattus norvegicus [26] = test: Ratio of Total electrolytic excretion of sodium and potassium in urine of rats after intravenous administration of 7.94 uM/Kg of drug; type: ADME, organism-based; settings: in vivo
Rattus norvegicus [27] = test: Total electrolytic excretion of sodium in urine of rats after intravenous administration of 7.94 uM/Kg of drug; type: ADME, organism-based; settings: in vivo
Rattus norvegicus [28] = test: Total electrolytic excretion of chlorine in urine of rats after peroral administration of 265 uM/Kg of drug; type: ADME, organism-based; settings: in vivo, po
Rattus norvegicus [29] = test: Total electrolytic excretion of potassium in urine of rats after peroral administration of 79.4 uM/Kg of drug; type: ADME, organism-based; settings: in vivo, po
Rattus norvegicus [30] = test: Ratio of Total electrolytic excretion of sodium and potassium in urine of rats after peroral administration of 79.4 uM/Kg of drug; type: ADME, organism-based; settings: in vivo, po
Rattus norvegicus [31] = test: Total electrolytic excretion of chlorine in urine of rats after intravenous administration of 7.94 uM/Kg of drug; type: ADME, organism-based; settings: in vivo
Rattus norvegicus [32] = test: Tested for the diuretic activity by measuring the urinary volume after peroral administering 79.4 uM/Kg of drug in rats; type: ADME, organism-based, Urine; settings: in vivo, po
Rattus norvegicus [33] = test: Total electrolytic excretion of potassium in urine of rats after peroral administration of 26.5 uM/Kg of drug; type: ADME, organism-based; settings: in vivo, po
Rattus norvegicus [34] = test: Tested for the diuretic activity by measuring the urinary volume after peroral administering 26.5 uM/Kg of drug in rats; type: ADME, organism-based, Urine; settings: in vivo, po
Rattus norvegicus [35] = test: Tested for the diuretic activity by measuring the urinary volume after peroral administering 0 uM/Kg of drug in rats; type: ADME, organism-based, Urine; settings: in vivo, po
Rattus norvegicus [36] = test: Total electrolytic excretion of sodium in urine of rats after peroral administration of 0 uM/Kg of drug; type: ADME, organism-based; settings: in vivo, po
Rattus norvegicus [37] = test: Total electrolytic excretion of potassium in urine of rats after peroral administration of 0 uM/Kg of drug; type: ADME, organism-based; settings: in vivo, po

Excretion K+ (Rattus norvegicus [1]): 0.31 m equiv
V (Rattus norvegicus [2]): 8.4 mL
Ratio (Rattus norvegicus [3]): 5.6
Excretion Cl- (Rattus norvegicus [4]): 1.66 m equiv
Excretion Cl- (Rattus norvegicus [5]): 1.37 m equiv
Excretion Na+ (Rattus norvegicus [6]): 1.21 m equiv
Ratio (Rattus norvegicus [7]): 5
V (Rattus norvegicus [8]): 9.7 mL
Excretion Na+ (Rattus norvegicus [9]): 1.53 m equiv
Excretion K+ (Rattus norvegicus [10]): 0.32 m equiv
Excretion K+ (Rattus norvegicus [11]): 0.28 m equiv
V (Rattus norvegicus [12]): 9.1 mL
Excretion Cl- (Rattus norvegicus [13]): 1.63 m equiv
Excretion Na+ (Rattus norvegicus [14]): 1.54 m equiv
Ratio (Rattus norvegicus [15]): 3.8
SMILES: C1CCCC(/N=C(/NC2CCCCCC2)N2CCOCC2)CC1

Excretion K+ (Rattus norvegicus [16]): 1.3 m equiv
Ratio (Rattus norvegicus [17]): 6.1
Excretion Na+ (Rattus norvegicus [18]): 2.05 m equiv
Excretion Na+ (Rattus norvegicus [19]): 1.44 m equiv
Excretion K+ (Rattus norvegicus [20]): 0.29 m equiv
Excretion Cl- (Rattus norvegicus [21]): 1.7 m equiv
Excretion Cl- (Rattus norvegicus [22]): 1.4 m equiv
Excretion Na+ (Rattus norvegicus [23]): 1.71 m equiv
Ratio (Rattus norvegicus [24]): 4.4
V (Rattus norvegicus [25]): 17.4 mL
Ratio (Rattus norvegicus [26]): 6.5
Excretion Na+ (Rattus norvegicus [27]): 7.8 m equiv
Excretion Cl- (Rattus norvegicus [28]): 1.86 m equiv
Excretion K+ (Rattus norvegicus [29]): 0.35 m equiv
Ratio (Rattus norvegicus [30]): 4.8
Excretion Cl- (Rattus norvegicus [31]): 6.5 m equiv
V (Rattus norvegicus [32]): 12.3 mL
Excretion K+ (Rattus norvegicus [33]): 0.33 m equiv
V (Rattus norvegicus [34]): 9.5 mL
SMILES: Cc1cccc(C)c1N/C(=N/C1CCCCC1)N1CCOCC1

V (Rattus norvegicus [35]): 4.4 mL
Excretion Na+ (Rattus norvegicus [36]): 0.65 m equiv
Excretion K+ (Rattus norvegicus [37]): 0.24 m equiv
SMILES: NS(=O)(=O)c1cc(C(=O)O)c(NCc2ccco2)cc1Cl [FUROSEMIDE]
